Reference: patent publication US9925235B2, “Tilapia piscidins for use in enhancement of wound healing” (Academia Sinica, priority 2015, dated 2018)

Key:
[1] = system: EGF, TGF-β, VEGF gene expression; experiment: Real-time PCR of cell proliferation genes and histology of infected wounds, TP4; assay type: in vivo, mice
Source text: Adult mice were infected with MRSA, and treated with TP4 or antibiotics, while controls were infected but untreated. On the indicated days, total RNA was isolated from the wound and reverse transcribed for use in real-time qPCR analysis of EGF (FIG. 10A), TGF-β (FIG. 10B), and VEGF (FIG. 10C) gene expression. (r=3; n=6.) Values with different letters show significant differences (P<0.05), as determined by ANOVA.
Tracings were taken immediately after injury. For uncontaminated wounds, wound size was determined every second day. For contaminated wounds, mice were euthanized at days 3, 5, or 19, and tracings of the wound edges were made. Wound areas were determined using the Macintosh Adobe Photoshop program, Histogram Analysis. The percentage of wound contraction was calculated as follows: % Wound contraction=(A0−At)/A0×100, where A0 is the original wound area, and at is the area of wound at the time of biopsy, accordingly. Cell proliferation gene expression was performed by real-time PCR, using the methods described above.
Skin tissues were removed and fixed as previously described. In brief, the cryosections were fixed with 4% formaldehyde, and the tissue samples were stained with VEGF. IHC was analyzed by three independent investigators. Images were taken using a BX-51 microscope (Olympus, Japan). ELISA was performed as previously described.

MRSA [2] = experiment: Mouse model of MRSA sepsis, TP4; assay type: in vivo, Balb/c mice
Method: Female Balb/c mice (6-8 weeks old) were injected intraperitoneally with 10^6 CFU MRSA per mouse. Ten minutes after MRSA injection, mice were injected intraperitoneally with vancomycin (0.01 mg/g mouse body weight), methicillin (0.01 mg/g mouse body weight), or TP4 (0.005 mg/g mouse body weight). In a second set of experiments, mice were given intraperitoneal injections of TP4 (0.005 mg/g mouse body weight) at 10, 60, 120, or 180 min after MRSA injection. Survival rate and status were recorded every 24 h for up to 192 h. To examine bacterial dissemination, mice were sacrificed at 48 h after injection with antibiotics or TP4, and the bacterial numbers in blood, peritoneum, spleen, liver, and mesenteric lymph nodes were recorded. Colony counts from the diluted bacterial solutions were expressed relative to those at the start of treatment. These experiments consisted of four groups, and each group contained 10 mice.
Infected mice were untreated, or treated with TP4, methicillin, or vancomycin via i.p. injection. Bacterial numbers in blood, peritoneum, spleen, liver, and mesenteric lymph nodes were subsequently recorded. Colony counts from the diluted bacterial solutions are expressed relative to those at the start of treatment. Each value represents the mean value from three determinations±standard deviation (SD).

[3] = system: Collagen I, collagen III, KGF gene expression in Hs-68 cells; experiment: Real-time PCR of collagen I, collagen III, KGF in Hs-68 cells; assay type: cell-based, human; settings: TP4 6.25 μg/ml, 48 h, vs controls
Method: In FIG. 5A-5C, Hs-68 cells were treated with different doses of TP4 for 48 h, and cell viability was measured by neutral red, LDH, and MTT assays. (r=3; n=6.) In FIG. 5D-5F, the experimental Hs-68 cells were treated with TP4 ([…]), while control cells were untreated. After 48 h, total RNA was isolated and reverse transcribed for use in real-time qPCR analysis. Six replicate wells were analyzed per assay. Results represent the mean±SEM from three independent experiments. (Student's t-test: *, P<0.05; **, P<0.01; n.s.: not significant).
Total RNA was isolated from HaCaT and Hs-68 cells, and purified using a Qiagen RNeasy kit. Reverse transcription into cDNA was performed with an iScript cDNA Synthesis Kit (BIO-RAD, USA) according to the manufacturer's recommendations. Real-time polymerase chain reaction (PCR) was performed to analyze gene expression, using […] of cDNA, 2× iQSYBR® Green Supermix (BIO-RAD, USA), and 500 nM of forward and reverse primers against selected genes or GAPDH (reference gene), according to the instructions of the manufacturer. Quantitative PCR was performed under the following conditions: 40 cycles of 1 min at 95° C., 30 s at 55° C., and 1 min at 72° C. The threshold cycle number (Ct) was calculated with BIO-RAD software. Relative transcript quantities were calculated using the ΔCt method with GAPDH as the internal reference gene. ΔCt is the difference in the threshold cycles of messenger (m)RNA for selected genes relative to those of GAPDH mRNA. Real-time PCR was performed in triplicate for each experimental group.

MRSA [4] = experiment: Mouse wound healing model, wound closure, TP4; assay type: in vivo, Balb/c mice; settings: MRSA-contaminated full-thickness wounds
Method: Female Balb/c mice (6-8 weeks old) were used for wound healing experiments. All mice were housed individually to prevent fighting and further damage to the wounds, and they were provided with food and water ad libitum. Mice were maintained on a 12 h light: dark cycle at room temperature, and acclimatized to the environment for at least a week before use in experiments. All researchers wore caps, sterile gloves, gowns, and shoe covers when handling mice. Hair was removed from the back of the mice by shaving, and a full thickness wound (1 cm in diameter) was then created in the exposed region. Each wound was inoculated with 50 μl of broth mix containing 10^6 cfu (colony forming units) of S. aureus. At 5 min after inoculation, 50 μl TP4 (2 mg/ml) in a total volume of 0.1 ml were applied. […] Animals were subsequently euthanized by CO2 inhalation and the wounds assessed. […] Each wound was measured and then removed from the animal, with unwounded skin taken from the contralateral dorsum as a control. Each biopsy was divided into six sections, with three sections being used for tensiometry and histology, and three sections for quantitative determination of microbial load. […]
Tracings were taken immediately after injury. For uncontaminated wounds, wound size was determined every second day. […] Wound areas were determined using the Macintosh Adobe Photoshop program, Histogram Analysis. […]

[5] = 48 hours after the last treatment

## Tilapia piscidin 4 (FIHHIIGGLFSAGKAIHRLIRRRRR; listed as Oreochromis niloticus) [TP4]
[1]; TP4-treated wounds
  epidermal regeneration, histological examination of biopsies: complete and architecturally normal epidermal regeneration
[1]; wound tissue, 3 days, vs control and vancomycin-treated mice
  gene expression of EGF: enhanced gene expression
[1]; wound tissue, 7 days, vs control and vancomycin-treated mice
  gene expression of TGF: enhanced gene expression
[1]; wound tissue, 14 days, vs control and vancomycin-treated mice
  gene expression of VEGF: enhanced gene expression
MRSA [2]; [5]
  Mean ± SD count, Blood: 0^A CFU/mL
  Mean ± SD count, Liver: 2.4 × 10^4 ± 1 × 10^6A CFU/mL
  Mean ± SD count, Mesenteric lymph nodes: 6 × 10^5 ± 1 × 10^5A CFU/mL
  Mean ± SD count, Peritoneum: 1 × 10^6 ± 1 × 10^4A CFU/mL
  Mean ± SD count, Spleen: 3 × 10^6 ± 1.2 × 10^6A CFU/mL
MRSA [2]; 8 days after MRSA infection, i.p. 10 min after MRSA, TP4 0.005 mg/g, vancomycin and methicillin 0.01 mg/g
  survival rate: 100%
MRSA [2]; P<0.05
  bacterial burden in organs vs untreated controls: significantly reduced the bacterial burden in all examined organs
MRSA [2]; TP4 0.005 mg/g injected 10 min after MRSA
  survival rate: 100%
MRSA [2]; TP4 0.005 mg/g injected 60 min after MRSA
  survival rate: 80%
MRSA [2]; TP4 0.005 mg/g injected 120 min after MRSA
  survival rate: 60%
MRSA [2]; TP4 0.005 mg/g injected 180 min after MRSA
  survival rate: 50%
MRSA [2]; monitored for 2 day after injection, MRSA 10^6 CFU i.p.
  % lethality: 0^A %
[3]
  Collagen I gene expression: enhanced
  Collagen III gene expression: enhanced
  KGF gene expression: enhanced
MRSA [4]
  day of wound closure: 21 days
  wound closure: wound closure was accelerated
